Measurements as given in patent US6358736B1, “Method for increasing the antigen presenting ability of leukemia cells” (The United States of America as represented by the …, priority 1995, dated 2002).
“Also recorded” adds a separate entry of the source.

B1: rhIL-12: recombinant human IL-12 (protein, UniProt P29459 23-219; P29460 23-328, looked up)
Interleukin-12 subunit alpha: RNLPVATPDPGMFPCLHHSQNLLRAVSNMLQKARQTLEFYPCTSEEIDHEDITKDKTSTVEACLPLELTKNESCLNSRETSFITNGSCLASRKTSFMMALCLSSIYEDLKMYQVEFKTMNAKLLMDPKRQIFLDQNMLAVIDELMQALNFNSETVPQKSSLEEPDFYKTKIKLCILLHAFRIRAVTIDRVMSYLNAS
Interleukin-12 subunit beta: IWELKKDVYVVELDWYPDAPGEMVVLTCDTPEEDGITWTLDQSSEVLGSGKTLTIQVKEFGDAGQYTCHKGGEVLSHSLLLLHKKEDGIWSTDILKDQKEPKNKTFLRCEAKNYSGRFTCWWLTTISTDLTFSVKSSRGSSDPQGVTCGAATLSAERVRGDNKEYEYSVECQEDSACPAAEESLPIEVMVDAVHKLKYENYTSSFFIRDIIKPDPPKNLQLKPLKNSRQVEVSWEYPDTWSTPHSYFSLTFCVQVQGKSKREKKDRVFTDKTSATVICRKNASISVRAQDRYYSSSWSEWASVPCS
B2: rhIL-1 alpha: recombinant human IL-1 alpha (protein, UniProt P01583 113-271, looked up)
Interleukin-1 alpha: SAPFSFLSNVKYNFMRIIKYEFILNDALNQSIIRANDQYLTAAALHNLDEAVKFDMGAYKSSKDDAKITVILRISKTQLYVTAQDEDQPVLLKEMPEIPKTITGSETNLLFFWETHGTKNYFTSVAHPNLFIATKQDYWVCLAGGPPSITDFQILENQA
B3: rhIL-10: recombinant human IL-10 (protein, UniProt P22301 19-178, looked up)
Interleukin-10: SPGQGTQSENSCTHFPGNLPNMLRDLRDAFSRVKTFFQMKDQLDNLLLKESLLEDFKGYLGCQALSEMIQFYLEEVMPQAENQDPDIKAHVNSLGENLKTLRLRLRRCHRFLPCENKSKAVEQVKNAFNKLQEKGIYKAMSEFDIFINYIEAYMTMKIRN
B4: MIP-1-alpha: chemokine inducing monocyte chemotaxis (protein, UniProt P10147 24-92, looked up)
C-C motif chemokine 3: SLAADTPTACCFSYTSRQIPQNFIADYFETSSQCSKPGVIFLTKRSRQVCADPSEEWVQKYVSDLELSA
B5: rhIFN-gamma: recombinant human interferon gamma (protein, UniProt P01579 24-161, looked up)
Interferon gamma: QDPYVKEAENLKKYFNAGHSDVADNGTLFLGILKNWKEESDRKIMQSQIVSFYFKLFKNFKDDQSIQKSVETIKEDMNVKFFNSNKKKRDDFEKLTNYSVTDLNVQRKAIHELIQVMAELSPAAKTGKRKRSQMLFRG
B6: RANTES: chemokine inducing monocyte chemotaxis (protein, UniProt P13501 24-91, looked up)
C-C motif chemokine 5: SPYSSDTTPCCFAYIARPLPRAHIKEYFYTSGKCSNPAVVFVTRKNRQVCANPEKKWVREYINSLEMS

Columns and labels:
[1] = test system: human peripheral blood monocytes; experiment: FACS analysis of cell surface markers on cultured peripheral blood monocytes; assay type: cell-based; details: for effect of agent on ionophore-induced activated myeloid dendritic cell phenotype: added to calcium ionophore treatment; for induction of activated myeloid dendritic cell phenotype (CD80 and CD83 expression): 20-40 hours, wide dose range, alone or in combination
HL-60 cells [2] = experiment: FACS analysis of cell surface markers on HL-60 cells; assay type: cell-based, human
HL-60 cells [3] = experiment: as above; assay type: cell-based, human; remark: listed apart in the source
Method: Calcium was removed from cultured cells by two methods.
The second method involved washing the cells extensively in calcium-free RPMI medium, and culturing them in the same calcium-free medium supplemented with serum that had been dialyzed against calcium-free phosphate-buffered saline.
The calmodulin kinase inhibitors KN-62 (20 uM) or KT-5926 (1 uM) was added to HL-60 cells in the presence of 188 ng/ml A23187. Twenty four hours later the level of CD80 was analyzed.
Thapsigargin was added to cultured human peripheral blood monocytes and HL-60 cells in concentrations ranging from 0 to 1000 nM. Cells were harvested 24 hours later and evaluated for the acquisition of ADC immunophenotypic characteristics by FACS analysis.
Cells were harvested after three days, irradiated (3000R), then FACS analyzed or cocultured in graded numbers with freshly prepared naive (CD45RO negative) T lymphocytes. Allosensitization was assessed by pulsing at day 4 with ^3H-TdR and harvesting 18 hours later.

[4] = KT5926 1 uM, 750 ng/ml ionophore, 24 hours

Row | Molecule | effect of agent on ionophore-induced activated myeloid dendritic cell phenotype [1] | also measured
1 | CN([C@@H](Cc1ccc(OS(=O)(=O)c2cccc3cnccc23)cc1)C(=O)N1CCN(c2ccccc2)CC1)S(=O)(=O)c1cccc2cnccc12 [KN-62] | inhibited at least some of the ionophore's effects | –
2 | NCCCCCCNS(=O)(=O)c1cccc2c(Cl)cccc12 [W-7] | inhibited at least some of the ionophore's effects | inhibition of ionophore-induced CD80 expression (HL-60 cells [2]; W-7 50 uM (optimal), A23187 188 ng/ml, 24 hours): over 75%
3 | C[C@@H]1[C@H](O)[C@@H](C)/C=C/C=C/C=C/C=C/C=C/C=C/C=C/[C@H](O[C@@H]2O[C@H](C)[C@@H](O)[C@H](N)[C@@H]2O)C[C@@H]2O[C@](O)(C[C@@H](O)C[C@@H](O)[C@H](O)CC[C@@H](O)C[C@@H](O)CC(=O)O[C@H]1C)C[C@H](O)[C@H]2C(=O)O [amphotericin B] | enhanced the induction of an activated myeloid dendritic cell phenotype; also recorded: enhance calcium ionophore's effect | effect of agent alone on monocytes ([1]; without ionophore): no or little effect alone
4 | CCCC(=O)Nc1ncnc2c1ncn2[C@@H]1O[C@@H]2COP(=O)(O)O[C@H]2[C@H]1OC(=O)CCC [dibutryl cAMP] | inhibited at least some of the ionophore's effects | –
5 | MCP-1: chemokine inducing monocyte chemotaxis | – | induction of activated myeloid dendritic cell phenotype (CD80 and CD83 expression) [1]: do not induce monocytes to express the phenotype of activated myeloid dendritic cells
6 | CN[C@@H]1C[C@H]2O[C@@](C)([C@@H]1OC)n1c3ccccc3c3c4c(c5c6ccccc6n2c5c31)C(=O)NC4 [staurosporine] | enhanced CD14 downregulation and upregulation of costimulatory, MHC, and other molecule expression | –
7 | rhIL-4: recombinant human IL-4 | enhanced CD14 downregulation and upregulation of costimulatory, MHC, and other molecule expression | –
8 | O=C(O)CN(CCN(CC(=O)O)CC(=O)O)CC(=O)O [EDTA] | – | suppression of ionophore-induced CD80/CD86 (HL-60 cells [3]; 0.25 uM EDTA): suppressive effects rapidly diminished; suppression of ionophore-induced CD80/CD86 (HL-60 cells [3]; 0.5 uM EDTA): Almost identical suppression; diminution of ionophore-induced CD86 levels (HL-60 cells [3]; 1 uM EDTA): more than 85%; suppression of ionophore-induced CD80 upregulation (HL-60 cells [3]; 1 uM EDTA): 100%
9 | CO[C@H]1[C@@H](OC)C[C@H](C)[C@@H](OC)C2=CC(=O)C=C(NC(=O)/C(C)=C/C=C\[C@H](OC)[C@@H](OC(N)=O)/C(C)=C/[C@@H]1C)C2=O [herbimycin A] | inhibited at least some of the ionophore's effects | –
10 | C[C@H]1O[C@@H](n2cnc3c(N)ncnc32)C[C@@H]1O [2′5′-DDA] | enhanced CD14 downregulation and upregulation of costimulatory, MHC, and other molecule expression | –
11 | C[C@]12C=CC(=O)C=C1CC[C@@H]1[C@@H]2[C@@H](O)C[C@@]2(C)[C@H]1CC[C@]2(O)C(=O)CO [prednisolone] | inhibited at least some of the ionophore's effects | –
12 | rhGM-CSF: recombinant human GM-CSF | enhanced CD14 downregulation and upregulation of costimulatory, MHC, and other molecule expression | effect on HL-60 phenotype (HL-60 cells [2]; rhGM-CSF alone): little effect alone
13 | CCCOc1ccc2c(c1)c1c3c(c4c5ccccc5n5c4c1n2[C@H]1C[C@](O)(C(=O)OC)[C@]5(C)O1)CNC3=O [KT-5926] | inhibited at least some of the ionophore's effects | suppression of CD40 [1, 4]: > 50%; suppression of CD80 [1, 4]: > 60%; suppression of CD86 [1, 4]: about 50%; suppression of HLA-ABC [1, 4]: over 40%; suppression of HLA-DR [1, 4]: modest, but detectable suppression
14 | C=C1[C@@H](O)[C@@H]2O[C@]3(CC[C@H](/C=C/[C@@H](C)[C@@H]4CC(C)=C[C@@]5(O[C@H](C[C@@](C)(O)C(=O)O)CC[C@H]5O)O4)O3)CC[C@H]2O[C@@H]1[C@@H](O)C[C@H](C)[C@H]1O[C@@]2(CCCCO2)CC[C@H]1C [okadaic acid] | enhanced CD14 downregulation and upregulation of costimulatory, MHC, and other molecule expression | –
15 | rhIL-6: recombinant human IL-6 | little or no effect | –
16 | COC(=O)[C@@]1(OC)C[C@H]2O[C@]1(C)n1c3ccccc3c3c4c(c5c6ccccc6n2c5c31)C(=O)N(C)C4 [KT5823] | inhibited at least some of the ionophore's effects | –
17 | CCCC(=O)Nc1nc2c(ncn2C2O[C@H]3COP(=O)(O)O[C@@H]3[C@@H]2OC(=O)CCC)c(=O)[nH]1 (stereo partly drawn) [dibutryl cGMP] | enhanced CD14 downregulation and upregulation of costimulatory, MHC, and other molecule expression | –
18 | CCCCC[C@H](O)/C=C/[C@H]1[C@H](O)CC(=O)[C@@H]1C/C=C\CCCC(=O)O [PGE2] | inhibited at least some of the ionophore's effects | –
19 | trifluoperazine dimaleate [TpD] | inhibited at least some of the ionophore's effects | effect on CD40, HLA-DR and HLA-ABC ([1]; TpD): significant suppressive effects; inhibition of CD80 ([1]; TpD 10 uM (optimal)): over 50%; inhibition of CD86 ([1]; TpD 10 uM (optimal)): over 50%; inhibition of ionophore-induced up-regulation of CD80 (HL-60 cells [2]; TpD 10 uM (optimal), A23187 188 ng/ml, 24 hours): over 90%
20 | C[C@H](CCC(=O)O)C[C@H](C)C[C@H](C)C(=O)/C=C(\O)[C@H](C)C[C@H](C)C/C=C/[C@@H](C)[C@@H](O)[C@@H](C)[C@@H](O)C[C@@H]1CC[C@@](C)([C@H]2CC[C@@](C)([C@@H](C)O)O2)O1 [ionomycin] | – | activation and dendritic cell phenotypic conversion of pooled monocyte plus DC fractions ([1]; added at the beginning of a 24-48 hr culture period): uniform activation and dendritic cell phenotypic conversion
21 | B1 | enhanced CD14 downregulation and upregulation of costimulatory, MHC, and other molecule expression | –
22 | B2 | little or no effect | –
23 | B3 | inhibited at least some of the ionophore's effects | –
24 | B4 | – | induction of activated myeloid dendritic cell phenotype (CD80 and CD83 expression) [1]: do not induce monocytes to express the phenotype of activated myeloid dendritic cells
25 | B5 | enhanced CD14 downregulation and upregulation of costimulatory, MHC, and other molecule expression | HLA-DR expression (HL-60 cells [3]; agent alone): induces HLA-DR expression
26 | B6 | – | induction of activated myeloid dendritic cell phenotype (CD80 and CD83 expression) [1]: do not induce monocytes to express the phenotype of activated myeloid dendritic cells
